The source of these data is ChEMBL document CHEMBL3407392, “Design, syntheses, structure-activity relationships and docking studies of coumarin derivatives as novel selective ligands for the CB2 receptor” (Eur J Med Chem, 2015).

pEC50, pIC50, pKi: −log10 of the molar value. Where only a bound is given, the exact number is not on record here.

In assay [1] the target is T1, Cannabinoid receptor 2 (Homo sapiens, UniProt P34972). In words: Binding affinity to CB2 receptor (unknown origin).
Assay [2] concerns the target T2, Cannabinoid receptor 1 (Homo sapiens, UniProt P21554). In words: Agonist activity at CB1 receptor (unknown origin) expressed in CHO cells by calcium mobilization assay. It is filed as functional, cell-based. For orientation: Calcium assays in cells follow changes in intracellular calcium, usually with a dye or a luminescent sensor.
The target in assay [3] is T1, Cannabinoid receptor 2. Kind of assay: Agonist activity at CB2 receptor (unknown origin) expressed in CHO cells by calcium mobilization assay. It is filed as functional, cell-based.
The species named for assay [4] is Homo sapiens. Kind of assay: Selectivity index, ratio of EC50 for CB1 receptor (unknown origin) to EC50 for CB2 receptor (unknown origin).
The target in assay [5] is T2, Cannabinoid receptor 1. It is filed as functional, cell-based, CHO.
The target in assay [6] is T1, Cannabinoid receptor 2. In words: Antagonist activity at CB2 receptor (unknown origin) expressed in CHO cells up to 10 uM incubated for 10 mins prior to CP55940 addition by calcium mobilization assay. It is filed as functional, cell-based.
Assay [7] has as its target T1, Cannabinoid receptor 2. Kind of assay: Agonist activity at CB2 receptor (unknown origin) expressed in CHO cells at 10 uM by calcium mobilization assay relative to control. In kind it is functional, cell-based.
The species entered for assay [8] is Homo sapiens. In words: Selectivity index, ratio of IC50 for CB1 receptor (unknown origin) to IC50 for CB2 receptor (unknown origin).

T2 sequence (P21554 whole entry): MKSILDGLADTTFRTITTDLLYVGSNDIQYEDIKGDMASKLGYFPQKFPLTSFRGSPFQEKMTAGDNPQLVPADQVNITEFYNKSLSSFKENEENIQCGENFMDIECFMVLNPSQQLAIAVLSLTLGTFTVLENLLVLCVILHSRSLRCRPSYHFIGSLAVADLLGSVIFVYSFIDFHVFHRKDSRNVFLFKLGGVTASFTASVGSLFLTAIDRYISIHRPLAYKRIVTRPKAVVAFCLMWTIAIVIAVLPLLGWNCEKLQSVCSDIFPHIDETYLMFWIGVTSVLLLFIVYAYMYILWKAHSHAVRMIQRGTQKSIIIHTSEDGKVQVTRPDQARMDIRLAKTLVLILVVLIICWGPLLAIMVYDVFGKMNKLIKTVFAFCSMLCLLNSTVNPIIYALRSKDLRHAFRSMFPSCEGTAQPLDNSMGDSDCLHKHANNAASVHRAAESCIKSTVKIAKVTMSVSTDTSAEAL
T1 sequence (P34972 whole entry): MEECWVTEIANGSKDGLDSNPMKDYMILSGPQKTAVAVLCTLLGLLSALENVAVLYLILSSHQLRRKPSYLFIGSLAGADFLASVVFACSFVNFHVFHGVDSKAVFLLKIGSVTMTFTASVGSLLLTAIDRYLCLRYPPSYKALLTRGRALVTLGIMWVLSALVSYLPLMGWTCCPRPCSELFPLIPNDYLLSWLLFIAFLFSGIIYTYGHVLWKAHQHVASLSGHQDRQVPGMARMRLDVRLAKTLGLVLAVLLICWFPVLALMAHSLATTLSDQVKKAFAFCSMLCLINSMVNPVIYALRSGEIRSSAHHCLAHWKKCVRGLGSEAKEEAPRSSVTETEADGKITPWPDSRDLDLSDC

Consider `CCCCCOc1cc(C(=O)NC2CCc3cc(O)c(O)cc3C2)ccc1OC` (stereo not drawn), for which the pKi (commonly the Ki on a negative log10 scale, so that one unit is a factor of ten) at Cannabinoid receptor 2 [1] was 7.74.
`CCCCCSc1cc(/C=C/C(=O)NCCc2ccc(O)cc2)ccc1OC` had a pKi on Cannabinoid receptor 2 [1] of 8.96.
Regarding `CCCCOc1cccc2cc(C(=O)NC(C)C)c(=O)oc12`, the pEC50 – broadly, the negative decadic logarithm of the EC50, by convention in mol/L – on Cannabinoid receptor 1 [2] is less than 5.00; at Cannabinoid receptor 2 [3], 6.99. In the assay filed under Homo sapiens [4], the Ratio EC50 was more than 97.1.
For `CCCCOc1cccc2cc(C(=O)NC(C)CCC)c(=O)oc12` (stereo not drawn), the pEC50 was less than 5.00 at Cannabinoid receptor 1 [2] and 6.49 on Cannabinoid receptor 2 [3]. Also, the Ratio EC50 in the assay listed under Homo sapiens [4] is more than 31.2.
On to `CCCCOc1cccc2cc(C(=O)NCC3CC3)c(=O)oc12`, for which the pEC50 at Cannabinoid receptor 1 [2] and at Cannabinoid receptor 2 [3] was less than 5.00 each time.
As to `CCCCOc1cc(Br)cc2cc(C(=O)NC3CC3)c(=O)oc12`, the pIC50 on Cannabinoid receptor 1 [5] and on Cannabinoid receptor 2 [6] was less than 5.00 throughout.
Regarding `CCCCOc1cccc2cc(C(=O)NN3CCCCC3)c(=O)oc12`, the pEC50 on Cannabinoid receptor 1 [2] is less than 5.00. For the same molecule, the Activity at Cannabinoid receptor 2 [7] was found to be 37%.
Take `CCCCOc1cccc2cc(C(=O)NC34CC5CC(CC(C5)C3)C4)c(=O)oc12`: the pEC50 on Cannabinoid receptor 1 [2] and on Cannabinoid receptor 2 [3] was less than 5.00 in each case.
As to `CCCCOc1cccc2cc(C(=O)NN3CCOCC3)c(=O)oc12`, the pEC50 at Cannabinoid receptor 1 [2] and at Cannabinoid receptor 2 [3] was less than 5.00 throughout.
For the molecule `CCCCCNc1c(OC)ccc2c1CN(CCc1ccc(O)cc1)C2=O`, the pKi on Cannabinoid receptor 2 [1] is 10.06.
Take `CCCCCCOc1cccc2cc(C(=O)NC3CCCCC3)c(=O)oc12`: the pEC50 at Cannabinoid receptor 1 [2] was less than 5.00. Further, the Activity on Cannabinoid receptor 2 [7] came out at 36%.
On Cannabinoid receptor 2 [1], `CCCCCOc1c(OC)ccc2cc(C(=O)N3CCCC(C(=O)OCC)C3)c(=O)[nH]c12` (stereo not drawn) showed a pKi of 7.00.
The same measure, in the same setting: for `CCCCCOc1ccc(C(=O)NCCc2ccc(N)cc2)cc1SCCCCC` the value was 8.72; for `CCCCCOc1c(OC)ccc2c1C(=O)N(CCc1ccc(O)cc1)C2=O`, 8.14.
With `CCOc1cccc2cc(C(=O)NC3CCCCC3)c(=O)oc12`, the pEC50 at Cannabinoid receptor 1 [2] and on Cannabinoid receptor 2 [3] was less than 5.00 each time.
Consider `CCCCOc1cc(Br)cc2cc(C(=O)NN3CCOCC3)c(=O)oc12`, for which the pIC50 at Cannabinoid receptor 1 [5] and on Cannabinoid receptor 2 [6] was less than 5.00 in each case.
On to `CCCCOc1c(OC)ccc2cc(C(=O)NCC3CC3)c(=O)oc12`, for which the pIC50 (usually the negative decadic logarithm of the IC50, by convention in mol/L) against Cannabinoid receptor 1 [5] was less than 5.00; on Cannabinoid receptor 2 [6], 5.93. Further, the Ratio IC50 in the assay filed under Homo sapiens [8] is more than 8.5.
The corresponding values for `CCCCOc1cc(Br)cc2cc(C(=O)NC3CCCCC3)c(=O)oc12` are less than 5.00, 7.05 and more than 111.
Take `CCCCOc1cccc2cc(C(=O)NC3CCCCC3)c(=O)oc12`: the pEC50 at Cannabinoid receptor 1 [2] was less than 5.00; at Cannabinoid receptor 2 [3], 6.84. Further, in the assay filed under Homo sapiens [4], the Ratio EC50 was more than 69.4.
On to `CCCCOc1c(OC)ccc2cc(C(=O)NC(C)C)c(=O)oc12`, for which the pIC50 against Cannabinoid receptor 1 [5] was less than 5.00; at Cannabinoid receptor 2 [6], 6.79. Besides, in the assay filed under Homo sapiens [8], the Ratio IC50 was more than 61.7.
As for `CCCCCOc1cc(/C=C/C(=O)NCCc2ccncc2)ccc1OC`, at Cannabinoid receptor 2 [1], the pKi was 7.36.
On to `CCCCOc1cccc2cc(C(=O)NC(C)C(C)C)c(=O)oc12` (stereo not drawn), for which the pEC50 at Cannabinoid receptor 1 [2] is less than 5.00. Also, the Activity at Cannabinoid receptor 2 [7] is 41%.
`CCCCOc1cccc2cc(C(=O)NC3CCCC3)c(=O)oc12`: the pEC50 was less than 5.00 on Cannabinoid receptor 1 [2] and 6.10 on Cannabinoid receptor 2 [3]. The Ratio EC50 in the assay filed under Homo sapiens [4] was more than 12.6.
For `CCCCOc1cccc2cc(C(=O)NC3CC3)c(=O)oc12`, the pEC50 at Cannabinoid receptor 1 [2] was less than 5.00. Besides, the Activity on Cannabinoid receptor 2 [7] stood at 34%.
On to `CCCCOc1cccc2cc(C(=O)NC(CC)CC)c(=O)oc12`, for which the results for the pEC50 at Cannabinoid receptor 1 [2] and at Cannabinoid receptor 2 [3] were less than 5.00 and 6.89, respectively. For the same molecule, the Ratio EC50 in the assay filed under Homo sapiens [4] is more than 76.9.
`CCCCCOc1c(OC)ccc2c1CN(CCc1ccc(O)cc1)C2=O`: at Cannabinoid receptor 2 [1], the pKi is 7.96.
As for `O=C(NC1CCCCC1)c1cc2cccc(OCc3ccccc3)c2oc1=O`, on Cannabinoid receptor 1 [2], the pEC50 was less than 5.00. The Activity on Cannabinoid receptor 2 [7] is 33%.
For the molecule `O=C(NCC1CCOCC1)c1cnc(Nc2ccc(Cl)cc2Cl)nc1C(F)(F)F` [GW842166X], the pEC50 on Cannabinoid receptor 1 [2] was less than 5.00; at Cannabinoid receptor 2 [3] it was 6.37. The Ratio EC50 in the assay filed under Homo sapiens [4] was more than 23.2.
Regarding `CCCCCOc1cc(C(=O)NCCc2ccncc2)ccc1OC`, the pKi at Cannabinoid receptor 2 [1] is 7.14.
In the case of `O=C(NC1CCCCC1)c1cc2cccc(OCC3CC3)c2oc1=O`, on Cannabinoid receptor 1 [2], the pEC50 is less than 5.00. For the same molecule, the Activity at Cannabinoid receptor 2 [7] came to 42%.
Turning to `CCCCOc1cccc2cc(C(=O)NCc3ccccc3)c(=O)oc12`, the pEC50 at Cannabinoid receptor 1 [2] and on Cannabinoid receptor 2 [3] was less than 5.00 throughout.
Take `CCCOc1cc(Br)cc2cc(C(=O)NC3CCCCC3)c(=O)oc12`: the pIC50 at Cannabinoid receptor 1 [5] and on Cannabinoid receptor 2 [6] was less than 5.00 throughout.
Regarding `CCCOc1c(OC)ccc2cc(C(=O)NC3CCCCC3)c(=O)oc12`, the pIC50 on Cannabinoid receptor 1 [5] was less than 5.00; at Cannabinoid receptor 2 [6] it was 6.09. Further, the Ratio IC50 in the assay filed under Homo sapiens [8] was more than 12.4.
Take `CCCCCOc1c(OC)ccc2cc(C(=O)NC3CCCCC3)c(=O)oc12`: the results for the pIC50 on Cannabinoid receptor 1 [5] and at Cannabinoid receptor 2 [6] were less than 5.00 and 7.21, respectively. Also, the Ratio IC50 in the assay listed under Homo sapiens [8] was more than 164.
For `CCCCCOc1cccc2cc(C(=O)NC3CCCCC3)c(=O)oc12`, the values for the pEC50 at Cannabinoid receptor 1 [2] and at Cannabinoid receptor 2 [3] were less than 5.00 and 6.61, respectively. Besides, the Ratio EC50 in the assay listed under Homo sapiens [4] was more than 40.8.
For `CCCCOc1c(OC)ccc2cc(C(=O)NC3CCCCC3)c(=O)oc12`, the pIC50 was less than 5.00 at Cannabinoid receptor 1 [5] and 7.66 on Cannabinoid receptor 2 [6]. The Ratio IC50 in the assay filed under Homo sapiens [8] is more than 454.
For the molecule `CCCCNC(=O)c1cc2cccc(OCCCC)c2oc1=O`, the pEC50 on Cannabinoid receptor 1 [2] and at Cannabinoid receptor 2 [3] was less than 5.00 throughout.
Consider `CCCCOc1c(OC)ccc2cc(C(=O)NC(CC)CC)c(=O)oc12`, for which the results for the pIC50 on Cannabinoid receptor 1 [5] and at Cannabinoid receptor 2 [6] were less than 5.00 and 7.70, respectively. In addition, the Ratio IC50 in the assay filed under Homo sapiens [8] was more than 500.
As for `CCCCCOc1c(OC)ccc2c(=O)n(CCc3ccc(O)cc3)ccc12`, the pKi at Cannabinoid receptor 2 [1] was 8.43.
`CCCCCOc1ccc2c(c1OCCCCC)CN(CCc1ccc(N)cc1)C2=O`: the pKi on Cannabinoid receptor 2 [1] is 9.96.
Take `CCCOc1cccc2cc(C(=O)NC3CCCCC3)c(=O)oc12`: the pEC50 at Cannabinoid receptor 1 [2] and on Cannabinoid receptor 2 [3] was less than 5.00 in each case.
`CCCCOc1c(OC)ccc2cc(C(=O)NCCc3ccccc3)c(=O)[nH]c12`: on Cannabinoid receptor 2 [1], the pKi is 9.48.
In the case of `CCCCOc1c(OC)ccc2cc(C(=O)NC(C)CCC)c(=O)oc12` (stereo not drawn), the pIC50 was less than 5.00 against Cannabinoid receptor 1 [5] and 7.72 on Cannabinoid receptor 2 [6]. The Ratio IC50 in the assay filed under Homo sapiens [8] was more than 526.
As to `CCCCCOc1c(OC)ccc2cc(C(=O)N3CCCc4ccccc4C3)c(=O)[nH]c12`, the pKi at Cannabinoid receptor 2 [1] is 6.93.
Regarding `CCCCOc1cccc2cc(C(=O)NC(C)(C)C)c(=O)oc12`, the pEC50 was less than 5.00 at Cannabinoid receptor 1 [2] and 6.01 on Cannabinoid receptor 2 [3]. For the same molecule, the Ratio EC50 in the assay listed under Homo sapiens [4] is more than 10.3.
Consider `CCCCCOc1cc(/C=C/C(=O)NCCc2ccc(O)cc2)ccc1OC`, for which the pKi on Cannabinoid receptor 2 [1] is 8.32.
Molecule `CCCCCOc1cc(C(=O)NCCc2ccc(O)cc2)ccc1OC` gave a pKi at Cannabinoid receptor 2 [1] of 8.60. Against the preceding molecule, the pKi is 0.28 log units higher.
In the case of `CCCCCCOc1cc(Br)cc2cc(C(=O)NC3CCCCC3)c(=O)oc12`, the pIC50 against Cannabinoid receptor 1 [5] and at Cannabinoid receptor 2 [6] was less than 5.00 in each case.
On to `O=C(NC1CCCCC1)c1cc2cc(Br)cc(OCC3CC3)c2oc1=O`, for which the pIC50 was less than 5.00 against Cannabinoid receptor 1 [5] and 6.13 on Cannabinoid receptor 2 [6]. Moreover, the Ratio IC50 in the assay filed under Homo sapiens [8] is more than 13.4.
The molecule `CCCCCOc1ccc(C(=O)NCCc2ccc(O)cc2)cc1OCCCCC` showed a pKi on Cannabinoid receptor 2 [1] of 9.36.
`CCCCOc1cc(Br)cc2cc(C(=O)NC(C)C)c(=O)oc12`: the pIC50 at Cannabinoid receptor 1 [5] and on Cannabinoid receptor 2 [6] was less than 5.00 throughout.
For the molecule `CCCCOc1cccc2cc(C(=O)N3CCCCC3)c(=O)oc12`, the pEC50 at Cannabinoid receptor 1 [2] and on Cannabinoid receptor 2 [3] was less than 5.00 each time.
`CCCCCOc1c(OC)ccc2c1CCN(CCc1ccc(O)cc1)C2=O` had a pKi on Cannabinoid receptor 2 [1] of 8.74.
Take `CCCCCOc1c(OC)ccc2c1CN(CCc1ccc(N)cc1)C2=O`: the pKi at Cannabinoid receptor 2 [1] was 7.85. Against the preceding molecule, the pKi is 0.89 log units lower.
Turning to `CCCCCOc1c(OC)ccc2cc(C(=O)NCc3ccc4c(c3)OCO4)c(=O)oc12`, the pIC50 at Cannabinoid receptor 1 [5] was less than 5.00; on Cannabinoid receptor 2 [6], 6.19. This molecule also gave a pKi at Cannabinoid receptor 2 [1] of 10.06. For the same molecule, the Ratio IC50 in the assay listed under Homo sapiens [8] was more than 15.5.
For the molecule `CCCCCOc1c(OC)ccc2c(=O)n(CCc3ccncc3)ccc12`, the pKi at Cannabinoid receptor 2 [1] was 8.08.
For the molecule `CCCCCOc1cc(Br)cc2cc(C(=O)NC3CCCCC3)c(=O)oc12`, the pIC50 at Cannabinoid receptor 1 [5] was less than 5.00; on Cannabinoid receptor 2 [6] it was 5.66. Also, the Ratio IC50 in the assay listed under Homo sapiens [8] came to 4.6.
The corresponding values for `CCCCOc1c(OC)ccc2cc(C(=O)NC(C)C(C)C)c(=O)oc12` (stereo not drawn) are less than 5.00, 7.55 and more than 357.
